Data reported in ChEMBL document CHEMBL4813993, “Design and synthesis of diosgenin derivatives as apoptosis inducers through mitochondria-related pathways” (Eur J Med Chem, 2021).
Activity calls are given as the source filed them. No cut-off for these calls is given here.

How the values were obtained:
[1] = system: K562; experiment: Induction of apoptosis in human K562 cells assessed as increase in cleaved caspase 9 gene expression at 3 to 12 uM after 48 hrs by SYBR green dye-based qRT-PCR analysis; type: functional, cell-based; details: dose 3-12 µM
[2] = system: K562; experiment: Induction of mitochondrial membrane potential loss in human K562 cells assessed as cell population with intact mitochondrial membrane potential at 6 uM after 48 hrs by JC1 dye-based flow cytometry analysis (reference value: 96.48%); type: functional
[3] = system: K562; experiment: Induction of apoptosis in human K562 cells assessed as increase in cytochrome c protein expression after 48 hrs by Western blot analysis; type: functional, cell-based; details: dose 3-12 µM
[4] = system: K562; experiment: Induction of apoptosis in human K562 cells assessed as early apoptotic cells at 6 uM incubated for 48 hrs by annexin V-FITC/PI staining based flow cytometry (reference value: 0.32 %); type: functional
[5] = system: K562; experiment: Induction of apoptosis in human K562 cells assessed as decrease in cell density at 3 to 12 uM incubated for 48 hrs by Hoechst 33342/PI staining based fluorescence microscopic analysis; type: functional; details: dose 3-12 µM
[6] = system: K562; experiment: Induction of ROS generation in human K562 cells at 3 uM incubated for 48 hrs by DCFH-DA staining-based flow cytometry (reference value: 3.68 %); type: functional
[7] = system: K562; experiment: Induction of apoptosis in human K562 cells assessed as increase in cleaved caspase 9 protein expression at 3 to 12 uM after 48 hrs by Western blot analysis; type: functional, cell-based; details: dose 3-12 µM
[8] = system: K562; experiment: Induction of apoptosis in human K562 cells assessed as increase in cleaved caspase 3 gene expression at 3 to 12 uM after 48 hrs by SYBR green dye-based qRT-PCR analysis; type: functional, cell-based; details: dose 3-12 µM
[9] = system: K562; experiment: Induction of apoptosis in human K562 cells assessed as nuclear fragmentation at 3 to 12 uM incubated for 48 hrs by Hoechst 33342/PI staining based fluorescence microscopic analysis; type: functional, cell-based; details: dose 3-12 µM
[10] = system: K562; experiment: Induction of apoptosis in human K562 cells assessed as late apoptotic cells at 6 uM incubated for 48 hrs by annexin V-FITC/PI staining based flow cytometry (reference value: 0.11 %); type: functional
[11] = system: K562; experiment: Induction of apoptosis in human K562 cells assessed as late apoptotic cells at 12 uM incubated for 48 hrs by annexin V-FITC/PI staining based flow cytometry (reference value: 0.11 %); type: functional
[12] = system: K562; experiment: Induction of ROS generation in human K562 cells at 12 uM incubated for 48 hrs by DCFH-DA staining-based flow cytometry (reference value: 3.68 %); type: functional
[13] = system: K562; experiment: Induction of apoptosis in human K562 cells assessed as decrease in Bcl-2 gene expression after 48 hrs by SYBR green dye-based qRT-PCR analysis; type: functional, cell-based; details: dose 3-12 µM
[14] = system: T-24; experiment: Cytotoxicity against human T24 cells assessed as inhibition of cell growth incubated for 48 hrs by CCK-8 assay; type: functional, cell-based; details: T-24, 48 h
[15] = system: K562; experiment: Induction of apoptosis in human K562 cells assessed as early apoptotic cells at 12 uM incubated for 48 hrs by annexin V-FITC/PI staining based flow cytometry (reference value: 0.32 %); type: functional
[16] = system: A549; experiment: Cytotoxicity against human A549 cells assessed as inhibition of cell growth incubated for 48 hrs by CCK-8 assay; type: functional, cell-based; details: A549, 48 h
[17] = system: MKN-45; experiment: Cytotoxicity against human MNK45 cells assessed as inhibition of cell growth incubated for 48 hrs by CCK-8 assay; type: functional, cell-based; details: MKN-45, 48 h
[18] = system: K562; experiment: Potency index, ratio of 5-FU IC50 to test compound IC50 for cytotoxicity against human K562 cells assessed as inhibition of cell growth incubated for 48 hrs by CCK-8 assay; type: functional
[19] = system: K562; experiment: Induction of apoptosis in human K562 cells assessed as increase in cleaved caspase 3 protein expression at 3 to 12 uM after 48 hrs by Western blot analysis; type: functional, cell-based; details: dose 3-12 µM
[20] = system: HepG2; experiment: Cytotoxicity against human HepG2 cells assessed as inhibition of cell growth incubated for 48 hrs by CCK-8 assay; type: functional, cell-based; details: HepG2, 48 h
[21] = system: K562; experiment: Induction of apoptosis in human K562 cells assessed as increase in Bax gene expression at 3 to 12 uM after 48 hrs by SYBR green dye-based qRT-PCR analysis; type: functional, cell-based; details: dose 3-12 µM
[22] = system: K562; experiment: Induction of apoptosis in human K562 cells assessed as late apoptotic cells at 3 uM incubated for 48 hrs by annexin V-FITC/PI staining based flow cytometry (reference value: 0.11 %); type: functional
[23] = system: K562; experiment: Induction of apoptosis in human K562 cells assessed as decrease in cell density at 3 to 12 uM incubated for 48 hrs by light microscopic analysis; type: functional, cell-based; details: dose 3-12 µM
[24] = system: K562; experiment: Induction of apoptosis in human K562 cells assessed as increase in Bax protein expression at 3 to 12 uM after 48 hrs by Western blot analysis; type: functional, cell-based; details: dose 3-12 µM
[25] = system: K562; experiment: Induction of apoptosis in human K562 cells assessed as decrease in Bcl-2 protein expression after 48 hrs by Western blot analysis; type: functional, cell-based; details: dose 3-12 µM
[26] = system: K562; experiment: Induction of apoptosis in human K562 cells assessed as increase in cleaved PARP protein expression at 3 to 12 uM after 48 hrs by Western blot analysis; type: functional, cell-based; details: dose 3-12 µM
[27] = system: K562; experiment: Cytotoxicity against human K562 cells assessed as inhibition of cell growth incubated for 48 hrs by CCK-8 assay; type: functional, cell-based; details: K562, 48 h
[28] = system: K562; experiment: Potency index, ratio of diosgenin IC50 to test compound IC50 for cytotoxicity against human K562 cells assessed as inhibition of cell growth incubated for 48 hrs by CCK-8 assay; type: functional
[29] = system: K562; experiment: Induction of mitochondrial membrane potential loss in human K562 cells assessed as cell population with intact mitochondrial membrane potential at 3 uM after 48 hrs by JC1 dye-based flow cytometry analysis (reference value: 96.48%); type: functional
[30] = system: K562; experiment: Induction of mitochondrial membrane potential loss in human K562 cells assessed as cell population with mitochondrial membrane potential collapse at 12 uM after 48 hrs by JC1 dye-based flow cytometry analysis (reference value: 2.75%); type: functional
[31] = system: K562; experiment: Induction of apoptosis in human K562 cells assessed as early apoptotic cells at 3 uM incubated for 48 hrs by annexin V-FITC/PI staining based flow cytometry (reference value: 0.32 %); type: functional
[32] = system: K562; experiment: Induction of ROS generation in human K562 cells at 6 uM incubated for 48 hrs by DCFH-DA staining-based flow cytometry (reference value: 3.68 %); type: functional
[33] = system: A549; experiment: Potency index, ratio of diosgenin IC50 to test compound IC50 for cytotoxicity against human A549 cells assessed as inhibition of cell growth incubated for 48 hrs by CCK-8 assay; type: functional
[34] = system: MCF7; experiment: Cytotoxicity against human MCF7 cells assessed as inhibition of cell growth incubated for 48 hrs by CCK-8 assay; type: functional, cell-based; details: MCF7, 48 h
[35] = system: K562; experiment: Induction of apoptosis in human K562 cells assessed as chromatin condensation at 3 to 12 uM incubated for 48 hrs by Hoechst 33342/PI staining based fluorescence microscopic analysis; type: functional, cell-based; details: dose 3-12 µM
[36] = system: K562; experiment: Induction of apoptosis in human K562 cells assessed as increase in number of broken cells at 3 to 12 uM incubated for 48 hrs by light microscopic analysis; type: functional, cell-based; details: dose 3-12 µM
[37] = system: K562; experiment: Induction of apoptosis in human K562 cells assessed as increase in cleaved PARP gene expression at 3 to 12 uM after 48 hrs by SYBR green dye-based qRT-PCR analysis; type: functional, cell-based; details: dose 3-12 µM
[38] = system: K562; experiment: Induction of mitochondrial membrane potential loss in human K562 cells assessed as cell population with mitochondrial membrane potential collapse at 3 uM after 48 hrs by JC1 dye-based flow cytometry analysis (reference value: 2.75%); type: functional
[39] = system: K562; experiment: Induction of mitochondrial membrane potential loss in human K562 cells assessed as cell population with intact mitochondrial membrane potential at 12 uM after 48 hrs by JC1 dye-based flow cytometry analysis (reference value: 96.48%); type: functional
[40] = system: K562; experiment: Induction of mitochondrial membrane potential loss in human K562 cells assessed as cell population with mitochondrial membrane potential collapse at 6 uM after 48 hrs by JC1 dye-based flow cytometry analysis (reference value: 2.75%); type: functional

Which Activity [1] does the source give for `CC(=O)O[C@H]1CC[C@@]2(C)C(=CC[C@H]3[C@@H]4C[C@@H]5O[C@H](CC[C@@H](C)COC(=O)[C@@H](N)Cc6c[nH]c7ccccc67)[C@@H](C)[C@@H]5[C@@]4(C)CC[C@@H]32)C1` here?
The Activity was “Active”.

What about the Activity [2] of the same molecule?
Its Activity is 75.88%.

What about the Activity [3] of the same molecule?
Its Activity is “Dose-Dependent Effect”.

What about the Activity [4] of the same molecule?
The Activity was 11.42%.

And the Activity [5]?
The Activity was “Active”.

What about the Activity [6] of the same molecule?
The Activity was 16.85%.

And the Activity [7]?
The Activity was “Active”.

And the Activity [8]?
The Activity was “Active”.

What about the Activity [9] of the same molecule?
Its Activity is “Active”.

And the Activity [10]?
The Activity was 14.13%.

And the Activity [11]?
Its Activity is 18.85%.

What about the Activity [12] of the same molecule?
Its Activity is 34.25%.

And the Activity [13]?
The Activity was “Dose-Dependent Effect”.

And the IC50 [14]?
The IC50 was 6.34 µM.

What about the Activity [15] of the same molecule?
Its Activity is 21.45%.

What about the IC50 [16] of the same molecule?
Its IC50 is 7.82 µM.

What about the IC50 [17] of the same molecule?
Its IC50 is 16.2 µM.

What about the “Ratio IC50” value [18] of the same molecule?
Its value is 4.3.

What about the Activity [19] of the same molecule?
The Activity was “Active”.

What about the IC50 [20] of the same molecule?
The IC50 was 12.7 µM.

What about the Activity [21] of the same molecule?
The Activity was “Active”.

What about the Activity [22] of the same molecule?
Its Activity is 9.13%.

And the Activity [23]?
Its Activity is “Active”.

And the Activity [24]?
The Activity was “Active”.

And the Activity [25]?
The Activity was “Dose-Dependent Effect”.

And the Activity [26]?
The Activity was “Active”.

And the IC50 [27]?
The IC50 was 4.41 µM.

What about the “Ratio IC50” value [28] of the same molecule?
The value was 6.8.

And the Activity [29]?
The Activity was 90.01%.

What about the Activity [30] of the same molecule?
Its Activity is 67.81%.

And the Activity [31]?
Its Activity is 4.78%.

And the Activity [32]?
Its Activity is 22.26%.

And the “Ratio IC50” value [33]?
Its value is 4.2.

And the IC50 [34]?
Its IC50 is 11.3 µM.

And the Activity [35]?
Its Activity is “Active”.

What about the Activity [36] of the same molecule?
Its Activity is “Active”.

What about the Activity [37] of the same molecule?
The Activity was “Active”.

What about the Activity [38] of the same molecule?
Its Activity is 8.78%.

And the Activity [39]?
The Activity was 27.71%.

What about the Activity [40] of the same molecule?
Its Activity is 21.23%.
